Experimental data as given in patent publication US9303045B2, “5-HT3 receptor antagonists” (Takeda Pharmaceutical Company Limited, priority 2013, dated 2016).

The compounds below were run against 5HT3a receptor expressed in HEK-293T cells (Homo sapiens (Human), UniProt P46098) (assay: Inhibition of Ca flux activity of 5HT3 in vitro assay). Details: calcium flux, 5HT 216 nM, approximate values.
Assay type: cell-based
Method: Inhibition of Ca Flux Activity of 5HT3 In Vitro Assay
The 5HT3 antagonist activity of the compounds of the invention was determined by measuring the ability of the compounds to inhibit the calcium flux activity of […] receptor expressed in HEK-293T cells. HEK-293T cells were transfected with the 5HT3a expression construct using Xtreme Gene 9 (Roche) in 150 mm tissue culture treated plates and incubated for 24 hours at 37° C. Cells were then split and plated at a density of 60K cells/well in poly-lysine coated, black 96-well plates with clear bottoms (BD BioSciences) and incubated overnight at 37° C. Growth media was removed and cells loaded with 200 uL calcium indicator dye in HBSS containing 20 mM HEPES (Calcium 5 Assay kit, Molecular Devices) and incubated at 37° C. for 1 hour. While cells were incubating, the 10× antagonist and agonist/antagonist addition plates were made. For 10× antagonist plate: half log serial dilutions (final concentrations range from 10^−7 through 10^−10 with the bottom well a negative, no ligand control) were made from test compounds in DMSO at a 1000× concentration and then diluted to 10× in HBSS/20 mM HEPES. For addition plate: 5HT was diluted to 100× in HBSS/20 mM HEPES (final concentration in the assay—216 nM) and 15 uL was added to each well of the addition plate, 15 uL of 10× compound was also added to the addition plate, and finally 120 uL of HBSS/20 mM HEPES (for a total of 150 uL). Cells were then removed from the incubator and equilibrated to room temperature for 10 minutes, then 22.5 uL of 10× test compounds were added in triplicate to the plates and incubated at room temperature for 10 minutes (Tropisetron was used as a positive control in every assay). Test plate and addition plate were loaded into the FlexStation III (Molecular Devices), and using the fluidics, 22.5 uL compound additions were made (at t=˜17 seconds), and fluorescence was measured for 90 seconds, reading every 2.2 seconds. Data sets were analyzed as max minus min using Software Max Pro (Molecular Devices). IC50 curves were generated using non-linear regression in GraphPad Prism.

5HT3a receptor expressed in HEK-293T cells, sequence (P46098 24-478): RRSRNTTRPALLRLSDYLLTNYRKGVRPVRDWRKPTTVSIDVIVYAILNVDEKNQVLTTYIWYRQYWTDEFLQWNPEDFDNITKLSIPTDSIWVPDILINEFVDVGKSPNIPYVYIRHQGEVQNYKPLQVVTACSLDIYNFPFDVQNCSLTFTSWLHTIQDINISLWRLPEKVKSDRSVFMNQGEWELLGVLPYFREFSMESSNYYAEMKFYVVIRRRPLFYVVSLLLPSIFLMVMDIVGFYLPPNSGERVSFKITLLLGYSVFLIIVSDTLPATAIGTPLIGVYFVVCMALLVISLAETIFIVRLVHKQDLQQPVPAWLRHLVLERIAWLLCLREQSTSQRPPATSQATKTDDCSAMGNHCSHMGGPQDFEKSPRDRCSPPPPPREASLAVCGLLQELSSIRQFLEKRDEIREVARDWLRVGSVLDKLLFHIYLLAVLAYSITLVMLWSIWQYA

**Q.** `CC(C)S(=O)(=O)n1cc(C(=O)NC2C[C@H]3COC[C@@H](C2)N3C)c2ccccc21` (some centres unmarked) was tested. Which IC50 did it give?
**A.** 0.57 nM

**Q.** For `CN1[C@@H]2COC[C@H]1CC(NC(=O)c1cn(CC(F)(F)F)c3ccccc13)C2` (some centres unmarked), which IC50 is on record?
**A.** 0.68 nM

**Q.** With `CC(C)S(=O)(=O)n1cc(C(=O)O[C@H]2C[C@H]3COC[C@@H](C2)N3)c2ccccc21` as the compound, how does the IC50 read?
**A.** 1.8 nM

**Q.** For “5-fluoro-N-((1R,5S,7S)-9-methyl-d3-3-oxa-9-azabicyclo[3.3.1]nonan-7-yl)-1-(2,2,2-trifluoroethyl)-1H-pyrrolo[2,3-b]pyridine-3-carboxamide 2,2,2-trifluoroacetate [Example 18]”, which IC50 is on record?
**A.** 4.06 nM

**Q.** How did the IC50 turn out when `O=C(OC1C[C@H]2COC[C@@H](C1)N2)c1cn(CC(F)F)c2ccc(F)cc12` (stereo partly drawn) [Example 31, (1R,5S,7S)-3-oxa-9-azabicyclo[3.3.1]nonan-7-yl 1-(2,2-difluoroethyl)-5-fluoro-1H-indole-3-carboxylate, 2,2,2-trifluoroacetate] was run?
**A.** 1.29 nM

**Q.** How did the IC50 turn out when `CN1C2COCC1CC(NC(=O)c1cn(CC(F)(F)F)c3ccc(F)cc13)C2` [Example 35, 5-fluoro-N-((1R,5S,7S)-9-methyl-3-oxa-9-azabicyclo[3.3.1]nonan-7-yl)-1-(2,2,2-trifluoroethyl)-1H-indole-3-carboxylate, 2,2,2-trifluoroacetate] was run?
**A.** 0.54 nM

**Q.** For `CN1[C@@H]2COC[C@H]1CC(NC(=O)c1cn(S(C)(=O)=O)c3ccc(F)cc13)C2` (stereo partly drawn) [Example 36, 5-fluoro-N-((1R,5S,7S)-9-methyl-3-oxa-9-azabicyclo[3.3.1]nonan-7-yl)-1-(methylsulfonyl)-1H-indole-3-carboxylate, 2,2,2-trifluoroacetate], which IC50 is on record?
**A.** 0.5 nM

**Q.** With `CS(=O)(=O)n1cc(C(=O)OC23CCN(CC2)CC3)c2cc(F)ccc21` [Example 37, quinuclidin-4-yl 5-fluoro-1-(methylsulfonyl)-1H-indole-3-carboxylate, 2,2,2-trifluoroacetate] as the compound, how does the IC50 read?
**A.** > 1000 nM

**Q.** For `O=C(NC1C[C@H]2COC[C@@H](C1)N2)c1cn(CC(F)(F)F)c2ncccc12` (stereo partly drawn) [Example 38, N-((1R,5S,7S)-3-oxa-9-azabicyclo[3.3.1]nonan-7-yl)-1-(2,2,2-trifluoroethyl)-1H-pyrrolo[2,3-b]pyridine-3-carboxamide, 2,2,2-trifluoroacetate], which IC50 is on record?
**A.** 1.82 nM

**Q.** Which IC50 does the source give for `O=C(NC1C[C@H]2COC[C@@H](C1)N2)c1cn(CC(F)F)c2ncc(F)cc12` (stereo partly drawn) [Example 39, N-((1R,5S,7S)-3-oxa-9-azabicyclo[3.3.1]nonan-7-yl)-1-(2,2-difluoroethyl)-5-fluoro-1H-pyrrolo[2,3-b]pyridine-3-carboxamide, 2,2,2-trifluoroacetate] here?
**A.** 24.1 nM

**Q.** `CN1C2CCC1CC(OC(=O)c1cn(CC(F)F)c3ccccc13)C2` [Example 40, (1R,3R,5S)-8-methyl-8-azabicyclo[3.2.1]octan-3-yl 1-(2,2-difluoroethyl)-1H-indole-3-carboxylate, 2,2,2-trifluoroacetate] was tested. Which IC50 did it give?
**A.** 0.78 nM

**Q.** For `CN1[C@@H]2CC[C@H]1CC(OC(=O)c1cn(CC(F)(F)F)c3ncccc13)C2` (stereo partly drawn) [Example 41, (1R,3R,5S)-8-methyl-8-azabicyclo[3.2.1]octan-3-yl 1-(2,2,2-trifluoroethyl)-1H-pyrrolo[2,3-b]pyridine-3-carboxylate, 2,2,2-trifluoroacetate], which IC50 is on record?
**A.** 5.56 nM

**Q.** How did the IC50 turn out when `CN1[C@@H]2CC[C@H]1CC(OC(=O)c1cn(C3CCOC3)c3ccccc13)C2` (stereo partly drawn) [Example 42, (1R,3R,5S)-8-methyl-8-azabicyclo[3.2.1]octan-3-yl 1-(tetrahydrofuran-3-yl)-1H-indole-3-carboxylate, 2,2,2-trifluoroacetate] was run?
**A.** 0.94 nM

**Q.** `CN1[C@@H]2CC[C@H]1CC(OC(=O)c1c(Cl)n(CC(F)F)c3ccccc13)C2` (stereo partly drawn) [Example 43, (1R,3R,5S)-8-methyl-8-azabicyclo[3.2.1]octan-3-yl 2-chloro-1-(2,2-difluoroethyl)-1H-indole-3-carboxylate, 2,2,2-trifluoroacetate] was tested. Which IC50 did it give?
**A.** 1.02 nM

**Q.** For `CN1[C@@H]2CC[C@H]1CC(OC(=O)c1c(Cl)n(CC(F)(F)F)c3ccccc13)C2` (stereo partly drawn) [Example 44, (1R,3R,5S)-8-methyl-8-azabicyclo[3.2.1]octan-3-yl 2-chloro-1-(2,2,2-trifluoroethyl)-1H-indole-3-carboxylate, 2,2,2-trifluoroacetate], which IC50 is on record?
**A.** 1.87 nM

**Q.** How did the IC50 turn out when `O=C(OC1C[C@H]2CC[C@@H](C1)N2)c1cn(CC(F)F)c2ccccc12` (stereo partly drawn) [Example 45, (1R,3R,5S)-8-azabicyclo[3.2.1]octan-3-yl 1-(2,2-difluoroethyl)-1H-indole-3-carboxylate, 2,2,2-trifluoroacetate] was run?
**A.** 3.09 nM

**Q.** `CN1[C@@H]2COC[C@H]1CC(OC(=O)c1cn(S(C)(=O)=O)c3ccccc13)C2` (stereo partly drawn) [Example 47, (1R,5S,7S)-9-methyl-3-oxa-9-azabicyclo[3.3.1]nonan-7-yl 1-(methylsulfonyl)-1H-indole-3-carboxylate, 2,2,2-trifluoroacetate] was tested. Which IC50 did it give?
**A.** 0.33 nM

**Q.** Which IC50 does the source give for `CN1[C@@H]2COC[C@H]1C[C@@H](OC(=O)c1cn(CC(F)F)c3ncccc13)C2` [Example 48, (1R,5S,7S)-9-methyl-3-oxa-9-azabicyclo[3.3.1]nonan-7-yl 1-(2,2-difluoroethyl)-1H-pyrrolo[2,3-b]pyridine-3-carboxylate] here?
**A.** 0.84 nM

**Q.** `CN1[C@@H]2COC[C@H]1CC(OC(=O)c1cn(CC(F)(F)F)c3ncccc13)C2` (stereo partly drawn) [Example 49, (1R,5S,7S)-9-methyl-3-oxa-9-azabicyclo[3.3.1]nonan-7-yl 1-(2,2,2-trifluoroethyl)-1H-pyrrolo[2,3-b]pyridine-3-carboxylate, 2,2,2-trifluoroacetate] was tested. Which IC50 did it give?
**A.** 1.82 nM

**Q.** With `O=C(OC1C[C@H]2COC[C@@H](C1)N2CCF)c1cn(CC(F)(F)F)c2ccc(F)cc12` (stereo partly drawn) [Example 50, (1R,5S,7S)-9-(2-fluoroethyl)-3-oxa-9-azabicyclo[3.3.1]nonan-7-yl 5-fluoro-1-(2,2,2-trifluoroethyl)-1H-indole-3-carboxylate, 2,2,2-trifluoroacetate] as the compound, how does the IC50 read?
**A.** 13 nM

**Q.** `CN1[C@@H]2COC[C@H]1CC(NC(=O)c1cn(CC(F)(F)F)c3ncc(F)cc13)C2` (stereo partly drawn) [Example 52, 5-fluoro-N-((1R,5S,7S)-9-methyl-3-oxa-9-azabicyclo[3.3.1]-nonan-7-yl)-1-(2,2,2-trifluoroethyl)-1H-pyrrolo[2,3-b]pyridine-3-carboxamide, 2,2,2-trifluoroacetate] was tested. Which IC50 did it give?
**A.** 1.05 nM

**Q.** How did the IC50 turn out when `CN1[C@@H]2COC[C@H]1C[C@@H](NC(=O)c1cn(C(F)(F)C(F)F)c3ncc(F)cc13)C2` [Example 53, 5-fluoro-N-((1R,5S,7S)-9-methyl-3-oxa-9-azabicyclo[3.3.1]-nonan-7-yl)-1-(1,1,2,2-tetrafluoroethyl)-1H-pyrrolo[2,3-b]pyridine-3-carboxamide, 2,2,2-trifluoroacetate] was run?
**A.** 1.05 nM

**Q.** How did the IC50 turn out when `CC(C)S(=O)(=O)n1cc(C(=O)OC2C[C@H]3COC[C@@H](C2)N3)c2cc(F)ccc21` (stereo partly drawn) [Example 54, (1R,5S,7S)-3-oxa-9-azabicyclo[3.3.1]nonan-7-yl 5-fluoro-1-(isopropylsulfonyl)-1H-indole-3-carboxylate, 2,2,2-trifluoroacetate] was run?
**A.** 5.61 nM

**Q.** How did the IC50 turn out when `CN1[C@@H]2CC[C@H]1CC(OC(=O)c1c(Cl)n(CCF)c3ccccc13)C2` (stereo partly drawn) [Example 55, (1R,3R,5S)-8-methyl-8-azabicyclo[3.2.1]octan-3-yl 2-chloro-1-(2-fluoroethyl)-1H-indole-3-carboxylate, 2,2,2-trifluoroacetate] was run?
**A.** 0.9 nM

**Q.** For `CN1C2CCC1CC(OC(=O)c1nn(CCF)c3ccccc13)C2` [Example 57, (1R,3R,5S)-8-methyl-8-azabicyclo[3.2.1]octan-3-yl 1-(2-fluoroethyl)-1H-indazole-3-carboxylate, 2,2,2-trifluoroacetate], which IC50 is on record?
**A.** > 1000 nM

**Q.** Which IC50 does the source give for `CN1[C@@H]2COC[C@H]1CC(OC(=O)c1cn(CC(F)F)c3ccc(F)cc13)C2` (stereo partly drawn) [Example 58, (1R,5S,7S)-9-methyl-3-oxa-9-azabicyclo[3.3.1]nonan-7-yl 1-(2,2-difluoroethyl)-5-fluoro-1H-indole-3-carboxylate, 2,2,2-trifluoroacetate] here?
**A.** 0.24 nM

**Q.** For `O=C(OC1CC2COCC(C1)N2)c1cn(CC(F)(F)F)c2ccc(F)cc12` [Example 59, (1R,5S,7S)-3-oxa-9-azabicyclo[3.3.1]nonan-7-yl 5-fluoro-1-(2,2,2-trifluoroethyl)-1H-indole-3-carboxylate, 2,2,2-trifluoroacetate], which IC50 is on record?
**A.** 2.36 nM

**Q.** `CN1[C@@H]2CCC[C@H]1CC(OC(=O)c1cn(CC(F)F)c3ccc(F)cc13)C2` (stereo partly drawn) [Example 60, (1R,3R,5S)-9-methyl-9-azabicyclo[3.3.1]nonan-3-yl 1-(2,2-difluoroethyl)-5-fluoro-1H-indole-3-carboxylate, 2,2,2-trifluoroacetate] was tested. Which IC50 did it give?
**A.** 0.44 nM

**Q.** `CN1C2CCCC1CC(OC(=O)c1cn(CC(F)F)c3ncccc13)C2` [Example 61, (1R,3R,5S)-9-methyl-9-azabicyclo[3.3.1]nonan-3-yl 1-(2,2-difluoroethyl)-1H-pyrrolo[2,3-b]pyridine-3-carboxylate, 2,2,2-trifluoroacetate] was tested. Which IC50 did it give?
**A.** 1 nM
